The CheMixHub viscosity set
Values joined by “and” are separate entries in the source; they are usually repeats but may differ in a detail not shown here. Equal entries are not always repeated.

Assay: xn = mol fraction of the nth substance listed

Cc1ncc(CO)c(CO)c1O.Cl + O
101 kPa
Conditions	viscosity
293.15 K, x1 = 0.001798	1.047 mPa·s
293.15 K, x1 = 0.0018	1.047 mPa·s
298.15 K, x1 = 0.00081	0.9087 mPa·s
298.15 K, x1 = 0.000909	0.918 mPa·s
298.15 K, x1 = 0.001809	0.95 mPa·s
298.15 K, x1 = 0.002028	0.9328 mPa·s
298.15 K, x1 = 0.002489	0.9415 mPa·s
298.15 K, x1 = 0.002657	0.96 mPa·s
298.15 K, x1 = 0.003638	0.99 mPa·s
298.15 K, x1 = 0.003926	0.9708 mPa·s
298.15 K, x1 = 0.004487	1.007 mPa·s
298.15 K, x1 = 0.004756	0.9841 mPa·s
298.15 K, x1 = 0.005406	1.027 mPa·s
298.15 K, x1 = 0.006266	1.04 mPa·s
298.15 K, x1 = 0.006666	1.03 mPa·s
298.15 K, x1 = 0.007307	1.06 mPa·s
298.15 K, x1 = 0.00813	1.073 mPa·s
298.15 K, x1 = 0.008945	1.084 mPa·s
298.15 K, x1 = 0.009813	1.108 mPa·s
303.15 K, x1 = 0.0018	0.832 mPa·s
303.15 K, x1 = 0.00359	0.8603 mPa·s and 0.8604 mPa·s
308.15 K, x1 = 0.002028	0.7519 mPa·s
308.15 K, x1 = 0.002489	0.7601 mPa·s
308.15 K, x1 = 0.003926	0.7829 mPa·s
308.15 K, x1 = 0.004756	0.7924 mPa·s
308.15 K, x1 = 0.006666	0.828 mPa·s
313.15 K, x1 = 0.001798	0.6798 mPa·s and 0.6802 mPa·s and 0.68 mPa·s
313.15 K, x1 = 0.00359	0.7025 mPa·s
313.15 K, x1 = 0.007154	0.7543 mPa·s and 0.7545 mPa·s
318.15 K, x1 = 0.002028	0.6236 mPa·s
318.15 K, x1 = 0.002489	0.6303 mPa·s
318.15 K, x1 = 0.003926	0.649 mPa·s
318.15 K, x1 = 0.004756	0.6605 mPa·s
318.15 K, x1 = 0.006666	0.6863 mPa·s
323.15 K, x1 = 0.001798	0.5675 mPa·s
323.15 K, x1 = 0.0018	0.5673 mPa·s
323.15 K, x1 = 0.005375	0.6071 mPa·s and 0.6075 mPa·s and 0.6074 mPa·s

NC(CO)(CO)CO + O
Conditions	viscosity [mPa·s]
298.15 K, 101 kPa, x1 = 0.001	0.91
298.15 K, 101 kPa, x1 = 0.01	1.03
298.15 K, 101 kPa, x1 = 0.022	1.18
298.15 K, 101 kPa, x1 = 0.034	1.46
298.15 K, 101 kPa, x1 = 0.055	1.97
303 K, 101 kPa, x1 = 0.06	2.19
303.15 K, 101 kPa, x1 = 0.001	0.79
303.15 K, 101 kPa, x1 = 0.01	0.91
303.15 K, 101 kPa, x1 = 0.022	1.05
303.15 K, 101 kPa, x1 = 0.034	1.28
303.15 K, 101 kPa, x1 = 0.055	1.77
303.15 K, 101.33 kPa, x1 = 0.008	0.905
303.15 K, 101.33 kPa, x1 = 0.02	1.042
303.15 K, 101.33 kPa, x1 = 0.04	1.475
303.15 K, 101.33 kPa, x1 = 0.047	1.789
308.15 K, 101 kPa, x1 = 0.001	0.69
308.15 K, 101 kPa, x1 = 0.01	0.79
308.15 K, 101 kPa, x1 = 0.022	0.94
308.15 K, 101 kPa, x1 = 0.034	1.14
308.15 K, 101 kPa, x1 = 0.055	1.54
313 K, 101 kPa, x1 = 0.06	1.68
313.15 K, 101 kPa, x1 = 0.001	0.62
313.15 K, 101 kPa, x1 = 0.01	0.71
313.15 K, 101 kPa, x1 = 0.022	0.85
313.15 K, 101 kPa, x1 = 0.034	1.03
313.15 K, 101 kPa, x1 = 0.055	1.37
313.15 K, 101.33 kPa, x1 = 0.008	0.738
313.15 K, 101.33 kPa, x1 = 0.02	0.846
313.15 K, 101.33 kPa, x1 = 0.026	0.981
313.15 K, 101.33 kPa, x1 = 0.047	1.399
318.15 K, 101 kPa, x1 = 0.001	0.58
318.15 K, 101 kPa, x1 = 0.01	0.65
318.15 K, 101 kPa, x1 = 0.022	0.77
318.15 K, 101 kPa, x1 = 0.034	0.93
318.15 K, 101 kPa, x1 = 0.055	1.22
323 K, 101 kPa, x1 = 0.06	1.32
323.15 K, 101 kPa, x1 = 0.001	0.52
323.15 K, 101 kPa, x1 = 0.022	0.71
323.15 K, 101 kPa, x1 = 0.034	0.84
323.15 K, 101 kPa, x1 = 0.055	1.11
323.15 K, 101.33 kPa, x1 = 0.008	0.616
323.15 K, 101.33 kPa, x1 = 0.02	0.705
323.15 K, 101.33 kPa, x1 = 0.026	0.811
323.15 K, 101.33 kPa, x1 = 0.04	0.962
323.15 K, 101.33 kPa, x1 = 0.047	1.129

O=P(O)(O)OP(=O)(O)O + O
viscosity, 101 kPa
Conditions	313 K	323 K
x1 = 0.009	0.95 mPa·s and 0.8 mPa·s	–
x1 = 0.015	1.49 mPa·s and 1.2 mPa·s	–
x1 = 0.02	1.75 mPa·s	1.39 mPa·s
x1 = 0.026	2.86 mPa·s	2.38 mPa·s
x1 = 0.03	4.79 mPa·s and 3.85 mPa·s	–
x1 = 0.0306	3.76 mPa·s	2.03 mPa·s
x1 = 0.04	5.82 mPa·s and 4.7 mPa·s	–
x1 = 0.045	7.65 mPa·s	6.05 mPa·s
x1 = 0.051	9.8 mPa·s and 6.88 mPa·s	–
x1 = 0.055	10.9 mPa·s and 8.82 mPa·s	–
x1 = 0.062	15.6 mPa·s	12.16 mPa·s

O=P([O-])([O-])O.[Na+].[Na+] + O
viscosity [mPa·s]
Conditions	293.15 K	298.15 K	303.15 K	308.15 K
100 kPa, x1 = 0.01115	–	1.215	1.095	–
100 kPa, x1 = 0.01333	1.455	–	–	–
100 kPa, x1 = 0.01698	–	–	–	1.175
101 kPa, x1 = 0.0018	–	0.948	0.8587	0.7663
101 kPa, x1 = 0.0054	–	1.05	0.968	0.8559
101 kPa, x1 = 0.0089	–	1.232	1.076	0.94
101 kPa, x1 = 0.012	–	1.441	1.228	1.152
101 kPa, x1 = 0.016	–	1.727	1.536	1.452

O=S(=O)(O)CCCN1CCOCC1 + O
viscosity [mPa·s], 101.3 kPa
Conditions	x1 = 0.003708	x1 = 0.007256	x1 = 0.009684	x1 = 0.01083	x1 = 0.01439	x1 = 0.0179
298.15 K	0.947	1.027	1.07	1.098	1.189	1.276
308.15 K	0.765	0.826	0.863	0.886	0.963	1.03
318.15 K	0.634	0.684	0.711	0.733	0.797	0.851

OCCC1CCCCN1 (stereo not drawn) + O
viscosity [mPa·s], 101.3 kPa
Conditions	x1 = 0.0153	x1 = 0.0564	x1 = 0.102	x1 = 0.173	x1 = 0.295
298.15 K	1.426	3.959	9.631	24.9	89.03
313.15 K	1.025	2.371	5.15	11.33	35.53

OCCOCCOCCOCCOCCOCCO + O
viscosity [mPa·s], 100 kPa
Conditions	293.15 K	298.15 K	303.15 K	308.15 K	313.15 K	318.15 K	323.15 K
x2 = 0.086	84.1	63.85	49.38	39.16	31.47	25.71	21.3
x2 = 0.154	83.43	63.21	48.95	38.71	31.12	25.38	21.01
x2 = 0.191	79.58	61.16	47.41	37.44	30.09	24.56	20.43
x2 = 0.222	81.84	62.01	47.77	37.78	30.44	24.83	20.66

OC[C@H]1O[C@H](O[C@H]2O[C@H](CO)[C@@H](O)[C@H](O)[C@H]2O)[C@H](O)[C@@H](O)[C@@H]1O + O
298.15 K, 101 kPa
Conditions	viscosity [mPa·s]
x1 = 0.0009	0.935
x1 = 0.001798	0.982
x1 = 0.002695	1.032
x1 = 0.00359	1.084
x1 = 0.004484	1.139
x1 = 0.005375	1.197

O[C@H]1[C@H](O)[C@@H](O)[C@H](O)[C@@H](O)[C@H]1O + O
viscosity
Conditions	x1 = 0.0018	x1 = 0.002	x1 = 0.00359	x1 = 0.004	x1 = 0.005	x1 = 0.00538	x1 = 0.00715	x1 = 0.00893
293.15 K, 101 kPa	1.051 mPa·s	–	1.102 mPa·s	–	–	1.154 mPa·s	1.23 mPa·s	1.281 mPa·s
293.15 K, 101.3 kPa	–	1.035 mPa·s	–	1.086 mPa·s	1.138 mPa·s	–	–	–
298.15 K, 101.3 kPa	–	0.945 mPa·s	–	0.986 mPa·s	1.006 mPa·s	–	–	–
303.15 K, 101 kPa	0.836 mPa·s	–	0.875 mPa·s	–	–	0.911 mPa·s	0.97 mPa·s	1.001 mPa·s and 1.011 mPa·s
303.15 K, 101.3 kPa	–	0.821 mPa·s	–	0.861 mPa·s	0.899 mPa·s	–	–	–
313.15 K, 101 kPa	0.685 mPa·s	–	0.728 mPa·s	–	–	0.742 mPa·s	0.789 mPa·s	0.82 mPa·s
323.15 K, 101 kPa	0.577 mPa·s	–	0.601 mPa·s	–	–	0.618 mPa·s	0.658 mPa·s	0.684 mPa·s
